# System: Panel, parental and outbred (CD-IGS) rat strains
# Experiment: Clinical chemistry endpoints of gentamicin-treated vs. vehicle rats
# Details: for T-test value ALB / T-test value ALP / T-test value ALT / T-test value ANION GAP / T-test value AST / T-test value BICARB / T-test value BUN / T-test value CA / T-test value CHOL / T-test value CREAT / T-test value GGT / T-test value GLOB / T-test value GLU / T-test value K / T-test value NA / T-test value PHOS / T-test value TBIL / T-test value TP / T-test value TRIG: 240 mg/Kg gentamicin vs. vehicle
# Source text: Percent increase is defined as[(mean drug—mean vehicle control)/mean vehicle control×100] for each strain tested. The number of animals tested in each group is noted below the strain designation in parenthesis as #drug treated animals per #vehicle treated animals.
# We sought to maximize the range of genetic susceptibility to the adverse drug effects across the strains.
# [1] = Panel (all 6 hybrid strains together)
# [2] = Parental Group (all 4 parents combined)
substance,measurement,setting,value
gentamicin,nephrotoxic phenotypes at the first dose,"120 mg/kg gentamicin, all strains (not shown)","did not produce a robust set of phenotypes, except in LEW rats"
same,T-test value ALB,BN rats,0.028
same,T-test value ALP,BN rats,0.040
same,T-test value ALT,BN rats,0.618
same,T-test value ANION GAP,BN rats,0.369
same,T-test value AST,BN rats,0.110
same,T-test value BICARB,BN rats,0.642
same,T-test value BUN,BN rats,0.003
same,T-test value CA,BN rats,0.460
same,T-test value CHOL,BN rats,0.092
same,T-test value CREAT,BN rats,0.005
same,T-test value GGT,BN rats,0.121
same,T-test value GLOB,BN rats,0.517
same,T-test value GLU,BN rats,0.937
same,T-test value K,BN rats,0.264
same,T-test value NA,BN rats,0.036
same,T-test value PHOS,BN rats,0.021
same,T-test value TBIL,BN rats,0.040
same,T-test value TP,BN rats,0.133
same,T-test value TRIG,BN rats,0.042
same,T-test value ALB,BNxF344 rats,0.089
same,T-test value ALP,BNxF344 rats,0.000
same,T-test value ALT,BNxF344 rats,0.171
same,T-test value ANION GAP,BNxF344 rats,0.770
same,T-test value AST,BNxF344 rats,0.005
same,T-test value BICARB,BNxF344 rats,0.765
same,T-test value BUN,BNxF344 rats,0.000
same,T-test value CA,BNxF344 rats,0.397
same,T-test value CHOL,BNxF344 rats,0.216
same,T-test value CREAT,BNxF344 rats,0.000
same,T-test value GLOB,BNxF344 rats,0.165
same,T-test value GLU,BNxF344 rats,0.434
same,T-test value K,BNxF344 rats,0.899
same,T-test value NA,BNxF344 rats,0.128
same,T-test value PHOS,BNxF344 rats,0.657
same,T-test value TBIL,BNxF344 rats,0.745
same,T-test value TP,BNxF344 rats,0.802
same,T-test value TRIG,BNxF344 rats,0.000
same,T-test value ALB,CD-IGS rats,0.493
same,T-test value ALP,CD-IGS rats,0.312
same,T-test value ALT,CD-IGS rats,0.714
same,T-test value ANION GAP,CD-IGS rats,0.222
same,T-test value AST,CD-IGS rats,0.740
same,T-test value BICARB,CD-IGS rats,0.030
same,T-test value BUN,CD-IGS rats,0.013
same,T-test value CA,CD-IGS rats,0.078
same,T-test value CHOL,CD-IGS rats,0.742
same,T-test value CREAT,CD-IGS rats,0.024
same,T-test value GGT,CD-IGS rats,0.331
same,T-test value GLOB,CD-IGS rats,0.252
same,T-test value GLU,CD-IGS rats,0.104
same,T-test value K,CD-IGS rats,0.229
same,T-test value NA,CD-IGS rats,0.138
same,T-test value PHOS,CD-IGS rats,0.620
same,T-test value TBIL,CD-IGS rats,0.720
same,T-test value TP,CD-IGS rats,0.807
same,T-test value TRIG,CD-IGS rats,0.946
same,T-test value ALB,F344 rats,0.002
same,T-test value ALP,F344 rats,0.017
same,T-test value ALT,F344 rats,0.108
same,T-test value ANION GAP,F344 rats,0.428
same,T-test value AST,F344 rats,0.304
same,T-test value BICARB,F344 rats,0.080
same,T-test value BUN,F344 rats,0.015
same,T-test value CA,F344 rats,0.637
same,T-test value CHOL,F344 rats,0.811
same,T-test value CREAT,F344 rats,0.006
same,T-test value GGT,F344 rats,0.363
same,T-test value GLOB,F344 rats,0.170
same,T-test value GLU,F344 rats,0.169
same,T-test value K,F344 rats,0.287
same,T-test value NA,F344 rats,0.020
same,T-test value PHOS,F344 rats,0.350
same,T-test value TBIL,F344 rats,0.969
same,T-test value TP,F344 rats,0.000
same,T-test value TRIG,F344 rats,0.052
same,T-test value ALB,LEW rats,0.015
same,T-test value ALP,LEW rats,0.419
same,T-test value ALT,LEW rats,0.080
same,T-test value ANION GAP,LEW rats,0.283
same,T-test value AST,LEW rats,0.754
same,T-test value BICARB,LEW rats,0.061
same,T-test value BUN,LEW rats,0.002
same,T-test value CA,LEW rats,0.000
same,T-test value CHOL,LEW rats,0.007
same,T-test value CREAT,LEW rats,0.006
same,T-test value GLOB,LEW rats,0.167
same,T-test value GLU,LEW rats,0.318
same,T-test value K,LEW rats,0.349
same,T-test value NA,LEW rats,0.361
same,T-test value PHOS,LEW rats,0.203
same,T-test value TBIL,LEW rats,0.648
same,T-test value TP,LEW rats,0.102
same,T-test value TRIG,LEW rats,0.405
same,T-test value ALB,LEWxBN rats,0.081
same,T-test value ALP,LEWxBN rats,0.005
same,T-test value ALT,LEWxBN rats,0.293
same,T-test value ANION GAP,LEWxBN rats,0.071
same,T-test value AST,LEWxBN rats,0.417
same,T-test value BICARB,LEWxBN rats,0.076
same,T-test value BUN,LEWxBN rats,0.001
same,T-test value CA,LEWxBN rats,0.000
same,T-test value CHOL,LEWxBN rats,0.533
same,T-test value CREAT,LEWxBN rats,0.002
same,T-test value GLOB,LEWxBN rats,0.419
same,T-test value GLU,LEWxBN rats,0.016
same,T-test value K,LEWxBN rats,0.145
same,T-test value NA,LEWxBN rats,0.955
same,T-test value PHOS,LEWxBN rats,0.431
same,T-test value TBIL,LEWxBN rats,0.060
same,T-test value TP,LEWxBN rats,0.434
same,T-test value TRIG,LEWxBN rats,0.037
same,T-test value ALB,LEWxF344 rats,0.071
same,T-test value ALP,LEWxF344 rats,0.144
same,T-test value ALT,LEWxF344 rats,0.380
same,T-test value ANION GAP,LEWxF344 rats,0.157
same,T-test value AST,LEWxF344 rats,0.375
same,T-test value BICARB,LEWxF344 rats,0.114
same,T-test value BUN,LEWxF344 rats,0.019
same,T-test value CA,LEWxF344 rats,0.777
same,T-test value CHOL,LEWxF344 rats,0.889
same,T-test value CREAT,LEWxF344 rats,0.014
same,T-test value GGT,LEWxF344 rats,0.351
same,T-test value GLOB,LEWxF344 rats,0.080
same,T-test value GLU,LEWxF344 rats,0.455
same,T-test value K,LEWxF344 rats,0.216
same,T-test value NA,LEWxF344 rats,0.227
same,T-test value PHOS,LEWxF344 rats,0.652
same,T-test value TBIL,LEWxF344 rats,0.560
same,T-test value TP,LEWxF344 rats,1.000
same,T-test value TRIG,LEWxF344 rats,0.129
same,increase in BUN,"LEW×F344, BN, F344, LEW and LEW×Bn strains, gentamicin treated",2-3 fold
same,T-test value ALB,[1],0.000
same,T-test value ALP,[1],0.300
same,T-test value ALT,[1],0.440
same,T-test value ANION GAP,[1],0.802
same,T-test value AST,[1],0.026
same,T-test value BICARB,[1],0.204
same,T-test value BUN,[1],0.000
same,T-test value CA,[1],0.004
same,T-test value CHOL,[1],0.404
same,T-test value CREAT,[1],0.000
same,T-test value GGT,[1],0.078
same,T-test value GLOB,[1],0.024
same,T-test value GLU,[1],0.497
same,T-test value K,[1],0.032
same,T-test value NA,[1],0.064
same,T-test value PHOS,[1],0.091
same,T-test value TBIL,[1],0.244
same,T-test value TP,[1],0.036
same,T-test value TRIG,[1],0.000
same,T-test value ALB,[2],0.000
same,T-test value ALP,[2],0.037
same,T-test value ALT,[2],0.047
same,T-test value ANION GAP,[2],0.046
same,T-test value AST,[2],0.040
same,T-test value BICARB,[2],0.068
same,T-test value BUN,[2],0.000
same,T-test value CA,[2],0.018
same,T-test value CHOL,[2],0.327
same,T-test value CREAT,[2],0.000
same,T-test value GGT,[2],0.083
same,T-test value GLOB,[2],0.638
same,T-test value GLU,[2],0.244
same,T-test value K,[2],0.486
same,T-test value NA,[2],0.000
same,T-test value PHOS,[2],0.016
same,T-test value TBIL,[2],0.141
same,T-test value TP,[2],0.002
same,T-test value TRIG,[2],0.000
same,T-test value ALB,WKY rats,0.034
same,T-test value ALP,WKY rats,0.003
same,T-test value ALT,WKY rats,0.346
same,T-test value ANION GAP,WKY rats,0.137
same,T-test value AST,WKY rats,0.244
same,T-test value BICARB,WKY rats,0.229
same,T-test value BUN,WKY rats,0.264
same,T-test value CA,WKY rats,0.969
same,T-test value CHOL,WKY rats,0.232
same,T-test value CREAT,WKY rats,0.156
same,T-test value GLOB,WKY rats,0.358
same,T-test value GLU,WKY rats,0.742
same,T-test value K,WKY rats,0.881
same,T-test value NA,WKY rats,0.134
same,T-test value PHOS,WKY rats,0.014
same,T-test value TBIL,WKY rats,0.052
same,T-test value TP,WKY rats,0.254
same,T-test value TRIG,WKY rats,0.010
same,T-test value ALB,WKYxBN rats,0.080
same,T-test value ALP,WKYxBN rats,0.008
same,T-test value ALT,WKYxBN rats,0.172
same,T-test value ANION GAP,WKYxBN rats,0.887
same,T-test value AST,WKYxBN rats,0.575
same,T-test value BICARB,WKYxBN rats,0.923
same,T-test value BUN,WKYxBN rats,0.016
same,T-test value CA,WKYxBN rats,0.175
same,T-test value CHOL,WKYxBN rats,0.610
same,T-test value CREAT,WKYxBN rats,0.026
same,T-test value GGT,WKYxBN rats,0.189
same,T-test value GLOB,WKYxBN rats,0.361
same,T-test value GLU,WKYxBN rats,1.000
same,T-test value K,WKYxBN rats,0.114
same,T-test value NA,WKYxBN rats,0.401
same,T-test value PHOS,WKYxBN rats,0.118
same,T-test value TBIL,WKYxBN rats,0.020
same,T-test value TP,WKYxBN rats,0.070
same,T-test value TRIG,WKYxBN rats,0.032
same,T-test value ALB,WKYxF344 rats,0.002
same,T-test value ALP,WKYxF344 rats,0.000
same,T-test value ALT,WKYxF344 rats,0.530
same,T-test value ANION GAP,WKYxF344 rats,0.434
same,T-test value AST,WKYxF344 rats,0.596
same,T-test value BICARB,WKYxF344 rats,0.318
same,T-test value BUN,WKYxF344 rats,0.005
same,T-test value CA,WKYxF344 rats,0.135
same,T-test value CHOL,WKYxF344 rats,0.867
same,T-test value CREAT,WKYxF344 rats,0.043
same,T-test value GLOB,WKYxF344 rats,0.104
same,T-test value GLU,WKYxF344 rats,0.375
same,T-test value K,WKYxF344 rats,0.270
same,T-test value NA,WKYxF344 rats,0.128
same,T-test value PHOS,WKYxF344 rats,0.010
same,T-test value TBIL,WKYxF344 rats,0.002
same,T-test value TP,WKYxF344 rats,0.125
same,T-test value TRIG,WKYxF344 rats,0.007
same,T-test value ALB,WKYxLEW rats,0.001
same,T-test value ALP,WKYxLEW rats,0.001
same,T-test value ALT,WKYxLEW rats,0.584
same,T-test value ANION GAP,WKYxLEW rats,0.429
same,T-test value AST,WKYxLEW rats,0.677
same,T-test value BICARB,WKYxLEW rats,0.085
same,T-test value BUN,WKYxLEW rats,0.000
same,T-test value CA,WKYxLEW rats,0.092
same,T-test value CHOL,WKYxLEW rats,0.608
same,T-test value CREAT,WKYxLEW rats,0.000
same,T-test value GLOB,WKYxLEW rats,0.365
same,T-test value GLU,WKYxLEW rats,0.001
same,T-test value K,WKYxLEW rats,0.689
same,T-test value NA,WKYxLEW rats,0.514
same,T-test value PHOS,WKYxLEW rats,0.123
same,T-test value TBIL,WKYxLEW rats,0.685
same,T-test value TP,WKYxLEW rats,0.000
same,T-test value TRIG,WKYxLEW rats,0.015
